Data from PubChem BioAssay (NCI).
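Cultured in 96-well plates, cells were exposed to test compound for 48 hours across five concentrations. TGI: total growth inhibition.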

Legend:
Assay in all cases: NCI anticancer screen, dose series, 48 h
[1] = system: IGROV1 ovarian
[2] = system: ACHN renal
[3] = system: LOX IMVI melanoma
[4] = system: NCI-H460 lung
[5] = system: SF-295 CNS
[6] = system: K-562 leukemia
[7] = system: MOLT-4 leukemia
[8] = system: COLO 205 colon
[9] = system: M19-MEL melanoma
[10] = system: KM20L2 colon
[11] = system: SF-268 CNS
[12] = system: DMS 114 small cell lung
[13] = system: A549 NSCLC
[14] = system: RPMI-8226 leukemia
[15] = system: DMS 273 small cell lung
[16] = system: SNB-78 CNS
[17] = system: CAKI-1 renal
[18] = system: SW-620 colon
[19] = system: EKVX NSCLC
[20] = system: OVCAR-8 ovarian
[21] = system: HCC-2998 colon
[22] = system: HL-60(TB) leukemia
[23] = system: U251 CNS
[24] = system: OVCAR-3 ovarian
[25] = system: TK-10 renal
[26] = system: SNB-19 CNS
[27] = system: NCI-H23 lung
[28] = system: RXF 393 renal
[29] = system: SR leukemia
[30] = system: UACC-62 melanoma
[31] = system: SK-MEL-5 melanoma
[32] = system: UO-31 renal
[33] = system: SK-MEL-28 melanoma
[34] = system: SNB-75 CNS
[35] = system: HCT-15 colon
[36] = system: HT29 colon
[37] = system: HCT-116 colon
[38] = system: UACC-257 melanoma
[39] = system: SN12C renal
[40] = system: HOP-62 NSCLC
[41] = system: SF-539 CNS
[42] = system: NCI-H226 lung
[43] = system: NCI-H522 lung
[44] = system: CCRF-CEM leukemia
[45] = system: LXFL 529 NSCLC
[46] = system: M14 melanoma
[47] = system: DLD-1 colon
[48] = system: OVCAR-5 ovarian
[49] = system: SK-OV-3 ovarian
[50] = system: MDA-MB-231 breast
[51] = system: MALME-3M melanoma
[52] = system: BT-549 breast
[53] = system: OVCAR-4 ovarian
[54] = system: A498 renal
[55] = system: MDA-N
[56] = system: HS 578T breast
[57] = system: MDA-MB-435
[58] = system: PC-3 prostate
[59] = system: MCF7 breast
[60] = system: NCI/ADR-RES ovarian
[61] = system: DU-145 prostate
[62] = system: 786-0 renal
[63] = system: HOP-92 NSCLC
[64] = system: T-47D breast
[65] = system: SK-MEL-2 melanoma
[66] = system: KM12 colon

Structure (SMILES): O=C1c2ccccc2N(O)C1(c1ccccc1)C1CCCC=C1N1CCOCC1 (centres undefined)
- TGI [1]: > 100 µM
- TGI [2]: > 100 µM
- TGI [3]: > 100 µM
- TGI [4]: > 100 µM
- TGI [5]: > 100 µM
- TGI [6]: > 100 µM
- TGI [7]: > 100 µM
- TGI [8]: > 100 µM
- TGI [9]: > 100 µM
- TGI [10]: > 100 µM
- TGI [11]: > 100 µM
- TGI [12]: > 100 µM
- TGI [13]: > 100 µM
- TGI [14]: > 100 µM
- TGI [15]: > 100 µM
- TGI [16]: > 100 µM
- TGI [17]: > 100 µM
- TGI [18]: > 100 µM
- TGI [19]: > 100 µM
- TGI [20]: > 100 µM
- TGI [21]: > 100 µM
- TGI [22]: > 100 µM
- TGI [23]: > 100 µM
- TGI [24]: > 100 µM
- TGI [25]: > 100 µM
- TGI [26]: > 100 µM
- TGI [27]: > 100 µM
- TGI [28]: > 100 µM
- TGI [29]: > 100 µM
- TGI [30]: > 100 µM
- TGI [31]: > 100 µM
- TGI [32]: > 100 µM
- TGI [33]: > 100 µM
- TGI [34]: > 100 µM
- TGI [35]: > 100 µM
- TGI [36]: > 100 µM
- TGI [37]: > 100 µM
- TGI [38]: > 100 µM
- TGI [39]: > 100 µM
- TGI [40]: > 100 µM
- TGI [41]: > 100 µM
- TGI [42]: > 100 µM
- TGI [43]: 73 µM
- TGI [44]: > 100 µM
- TGI [45]: > 100 µM
- TGI [46]: > 100 µM
- TGI [47]: > 100 µM
- TGI [48]: > 100 µM
- TGI [49]: > 100 µM

Structure (SMILES): COc1cc(C2C=C(c3ccccc3)Oc3cc4c(cc32)OCO4)cc(OC)c1OC (centres undefined)
- TGI [1]: > 100 µM
- TGI [2]: > 100 µM
- TGI [3]: > 54.8 µM
- TGI [50]: > 32.2 µM
- TGI [4]: > 100 µM
- TGI [5]: > 16.9 µM
- TGI [6]: > 100 µM
- TGI [51]: > 100 µM
- TGI [7]: > 100 µM
- TGI [52]: > 100 µM
- TGI [8]: > 17.1 µM
- TGI [11]: > 100 µM
- TGI [53]: > 100 µM
- TGI [13]: > 100 µM
- TGI [14]: > 100 µM
- TGI [17]: > 100 µM
- TGI [18]: > 100 µM
- TGI [19]: > 100 µM
- TGI [54]: > 100 µM
- TGI [20]: > 32.6 µM
- TGI [55]: > 16.6 µM
- TGI [56]: > 100 µM
- TGI [57]: > 100 µM
- TGI [21]: > 100 µM
- TGI [58]: > 100 µM
- TGI [22]: > 34.3 µM
- TGI [23]: > 100 µM
- TGI [24]: > 100 µM
- TGI [59]: > 100 µM
- TGI [25]: > 100 µM
- TGI [60]: > 15.2 µM
- TGI [26]: > 100 µM
- TGI [27]: > 27 µM
- TGI [28]: > 100 µM
- TGI [29]: > 100 µM
- TGI [30]: > 100 µM
- TGI [61]: 4.58 µM
- TGI [62]: > 19.6 µM
- TGI [63]: > 100 µM
- TGI [31]: > 47.8 µM
- TGI [32]: > 100 µM
- TGI [33]: > 100 µM
- TGI [34]: > 90.8 µM
- TGI [35]: > 100 µM
- TGI [64]: > 100 µM
- TGI [36]: > 18.3 µM
- TGI [37]: 9.44 µM
- TGI [38]: > 100 µM
- TGI [39]: > 96.3 µM
- TGI [40]: > 100 µM
- TGI [41]: 3.63 µM
- TGI [65]: > 81.1 µM
- TGI [44]: > 100 µM
- TGI [46]: > 100 µM
- TGI [48]: > 100 µM
- TGI [49]: > 100 µM
- TGI [66]: > 30.6 µM

Structure (SMILES): CCCCN(CC)C(=O)C(=O)Cc1nc2ccc(C(=O)c3ccccc3)cc2[nH]c1=O
- TGI [1]: > 100 µM
- TGI [2]: > 100 µM
- TGI [3]: > 100 µM
- TGI [4]: > 100 µM
- TGI [5]: > 100 µM
- TGI [6]: > 31.6 µM
- TGI [7]: > 31.6 µM
- TGI [8]: > 100 µM
- TGI [9]: > 100 µM
- TGI [10]: > 100 µM
- TGI [11]: > 100 µM
- TGI [12]: > 100 µM
- TGI [53]: > 100 µM
- TGI [13]: > 100 µM
- TGI [14]: > 31.6 µM
- TGI [15]: > 100 µM
- TGI [16]: > 100 µM
- TGI [17]: > 100 µM
- TGI [18]: > 100 µM
- TGI [19]: > 100 µM
- TGI [54]: > 100 µM
- TGI [20]: > 100 µM
- TGI [22]: > 31.6 µM
- TGI [23]: > 100 µM
- TGI [24]: > 100 µM
- TGI [25]: > 100 µM
- TGI [26]: > 100 µM
- TGI [27]: > 100 µM
- TGI [28]: 92 µM
- TGI [29]: > 31.6 µM
- TGI [30]: > 100 µM
- TGI [62]: > 100 µM
- TGI [63]: > 100 µM
- TGI [31]: > 100 µM
- TGI [32]: > 100 µM
- TGI [33]: > 100 µM
- TGI [34]: > 88.1 µM
- TGI [35]: > 100 µM
- TGI [36]: > 100 µM
- TGI [37]: > 100 µM
- TGI [38]: > 100 µM
- TGI [39]: > 100 µM
- TGI [40]: > 100 µM
- TGI [41]: > 100 µM
- TGI [42]: > 100 µM
- TGI [43]: 75 µM
- TGI [44]: > 31.6 µM
- TGI [45]: > 100 µM
- TGI [46]: > 100 µM
- TGI [47]: > 100 µM
- TGI [48]: > 100 µM
- TGI [49]: > 100 µM
- TGI [66]: > 100 µM
